In paper PMC9317316, “Synthesis and Evaluation of Some New 4H-Pyran Derivatives as Antioxidant, Antibacterial and Anti-HCT-116 Cells of CRC, with Molecular Docking, Antiproliferative, Apoptotic and ADME Investigations” (Pharmaceuticals, 2022):
Values joined by “and” are separate entries in the source; they are usually repeats but may differ in a detail not shown here. Equal entries are not always repeated. Where two headings read alike, the source gives them in different places.

What was measured:
[1] = Reducing power assay (FRAC, Fe3+ to Fe2+); details: 0-1 mg/mL, absorbance 700 nm
Procedure: Secondly, FRAC was determined over the concentration range of 0.0−1 mg/mL via monitoring Fe^3+−Fe^2+ transformation in the presence of the studied compounds and the reference antioxidant BHT to estimate the values of efficient concentration (EC50), expressed in mM.
The reducing power of the studied compounds was assessed according to Oyaizu’s method. Briefly, different concentrations (ranging from 0 to 1 mg/mL) of each tested compound were first mixed with 1 mL of 0.2 M sodium phosphate buffer (pH 6.6) and 1 mL of 1% potassium ferricyanide (K3Fe(CN)6) and incubated at 50 °C for 20 min. After the addition of 1.25 mL of 20% trichloroacetic acid (TCA), the mixture was centrifuged for 10 min at 3000 rpm and the upper layer solution was then mixed with 0.5 mL of 0.1% fresh ferric chloride and an equal volume of deionized water. Finally, the absorption of the resulting mixture was measured at 700 nm using a UV spectrophotometer against distilled water as the blank, while butylated hydroxytoluene (BHT) was used as a positive control. The sample ferric reducing power capability was indicated by increased absorbance.

E. faecalis (ATCC 29122) [2] = test: Antibacterial agar diffusion method (inhibition zone); format: cell-based
Procedure: (§1) The results for the in vitro antibacterial properties of the synthesized compounds against five Gram-positive and four Gram-negative human-pathogenic strains, which were assessed by both the agar diffusion method (based on inhibition zone (IZ)) and the broth dilution bioassay (for the determination of the half-maximal inhibitory concentration (IC50) values), using ampicillin as the reference antibiotic drug, are shown in Table 2 and Table 3.
(§2) The antibacterial activity of all synthesized compounds was evaluated against the Gram-negative strains E. coli (ATCC 25966), K. pneumonia (ATCC 700603), P. aeruginosa (ATCC 27853) and S. enteric (ATCC 43972) and against the Gram-positive strains B. cereus (ATCC 14579), B. subtilis (ATCC 6633), E. faecalis (ATCC 29122), S. aureus (ATCC 25923) and S. epidermidis (ATCC 14990), using the agar diffusion method through measuring the appearance of the inhibition zone on the surface of the top agar, as reported by Berghe and Vlietinck. Ampicillin (10 µg/well) was used as the positive reference standard. Bacterial viability was also investigated by determining the colony-forming ability (CFU) of bacteria incubated at different time intervals without or with appropriate amounts of the compound, which were mixed with 2 ×10^7 CFU/mL in sterile BHI and incubated under shaking for 60 min at 37 °C. Samples were serially diluted into sterile BHI, streaked onto media agar plates and incubated for 24 h at 37 °C. The antibacterial potency of the tested compounds was expressed as the residual number of CFUs with reference to the initial inoculums. The results presented as the half-maximal (50 %) inhibitory concentration (IC50) values are the means of three different measurements.

[3] = test system: P. aeruginosa (ATCC 27853); test: as above; format: cell-based
Procedure: as §1, §2

[4] = test system: K. pneumonia (ATCC 700603); test: as above; format: cell-based
Procedure: as §1, §2

E. coli (ATCC 25966) [5] = test: as above; format: cell-based; details: E. coil (ATCC 25966)
Procedure: as §1, §2

S. enteric (ATCC 43972) [6] = test: as above; format: cell-based
Procedure: as §1, §2

S. aureus (ATCC 25923) [7] = test: as above; format: cell-based
Procedure: as §1, §2

B. cereus (ATCC 14579) [8] = test: as above; format: cell-based
Procedure: as §1, §2

B. subtilis (ATCC 6633) [9] = test: as above; format: cell-based
Procedure: as §1, §2

[10] = test system: S. epidermidis (ATCC 14990); test: as above; format: cell-based
Procedure: as §1, §2

[11] = DPPH radical scavenging assay; details: for IC50: 0.03 to 1 mg/mL, 1 h, mean ± SD, triplicate, read-out: IC50 (mM) for DPPH Scavenging Potency
Procedure: The IC50 values for DPPH were calculated from the plot of the scavenging effect against the compound concentration.
The compounds’ capacities to scavenge the stable radical 1,1 diphenyl-2-picrylhydrazyl (DPPH) formed in solution by donation of a hydrogen atom or an electron was investigated according to the method described by Bersuder and coworkers. Due to the fact that the initial blue/purple solution of diphenyl picrylhydrazine changes to yellow in the presence of compounds with a capacity to scavenge DPPH free radicals, this reaction is used as a measure of a compound’s ability to scavenge any free radical. Briefly, a 0.5 mL volume of DPPH ethanolic solution was mixed with an equal volume of each sample concentration (0.03 to 1 mg/mL), shaken strongly and incubated at room temperature for 1 h in darkness. The absorbance of the residual DPPH radicals was measured at 519 nm and compared to that of the control (without the tested compound). DPPH radical scavenging was calculated using the following formula: Scavenging effect (%) = (1 − Acompound/AControl) × 100, where Acompound and Acontrol are the absorbances of the tested compound and of the control, respectively. A plot of the scavenging effect (%) versus the sample concentration was also performed to determine the compound concentration providing 50% inhibition (IC50).

E. faecalis (ATCC 29122) [12] = test: Antibacterial viability (CFU) assay, IC50; format: cell-based; details: Enterococcus faecalis, ATCC29122
Procedure: as §1, §2

[13] = test system: P. aeruginosa (ATCC 27853); test: Antibacterial viability (CFU) assay, IC50; format: cell-based; details: Pseudomonas aeruginosa, ATCC27853
Procedure: as §1, §2

[14] = test system: K. pneumonia (ATCC 700603); test: Antibacterial viability (CFU) assay, IC50; format: cell-based; details: Klebsiella pneumoniae, ATCC700603
Procedure: as §1, §2

E. coli (ATCC 25966) [15] = test: Antibacterial viability (CFU) assay, IC50; format: cell-based; details: Escherichia coli, ATCC25966; E. coil (ATCC 25966)
Procedure: as §1, §2

S. enteric (ATCC 43972) [16] = test: Antibacterial viability (CFU) assay, IC50; format: cell-based; details: read-out: IC50
Procedure: as §1, §2

S. aureus (ATCC 25923) [17] = test: Antibacterial viability (CFU) assay, IC50; format: cell-based; details: Staphylococcus aureus, ATCC25923
Procedure: as §1, §2

B. cereus (ATCC 14579) [18] = test: Antibacterial viability (CFU) assay, IC50; format: cell-based; details: Bacillus cereus, ATCC14579
Procedure: as §1, §2

B. subtilis (ATCC 6633) [19] = test: Antibacterial viability (CFU) assay, IC50; format: cell-based
Procedure: as §1, §2

[20] = test system: S. epidermidis (ATCC 14990); test: Antibacterial viability (CFU) assay, IC50; format: cell-based; details: Staphylococcus epidermidis, ATCC14990
Procedure: as §1, §2

HCT-116 cells = test: Cell viability (cytotoxicity, LDH release) assay; format: cell-based; details: Homo sapiens, 24 h; for viability at 100 µg/mL: read-out: percent of viable cells
Procedure: The synthesized compounds were also examined at four concentrations (10, 25, 50 and 100 µg/mL) for their cytotoxic effects on human colorectal cancer HCT-116 cells after their incubation together for 24 h.
Cytotoxic potency was examined for a human colon cancer cell line HCT-116 (American Type Culture Collection; Manassas, VA, USA) using various amounts of each compound (10, 25, 50 and 100 µg). Samples were diluted in Dulbecco’s Modified Eagle’s Medium, consisting of 10% Fetal Bovine Serum, and added to cells grown and cultured for 24 h in a 5% CO2-humidified incubator at 37 °C. Then, the activity of lactate dehydrogenase released from damaged cells was determined in the collected supernatant aliquots using an ELISA endpoint assay (Benchmark Plus, Bio-Rad, Hercules, CA, USA). As positive and negative controls, respectively, 0.1% Triton X-100 in the assay medium and the assay medium only were used. Cell viability, shown as mean values ± SDs (n = 3), was expressed as a relative percentage of the OD values determined at 600 nm in compound-treated cells and the control.

[21] = Bacillus subtilis, ATCC6633, B. subtilis (ATCC 6633)
[22] = read-out: Mean IC50 (µM) of cytotoxicity
[23] = read-out: Mean IC50 (µg/mL) of cytotoxicity

SMILES | EC50 [1] [µM] | melting point [°C] | IZ (mm) (E. faecalis (ATCC 29122) [2]) | IZ (mm) [3] [mm] | IZ (mm) [4] [mm] | IZ (mm) (E. coli (ATCC 25966) [5]) | IZ (mm) (S. enteric (ATCC 43972) [6]) | IZ (mm) (S. aureus (ATCC 25923) [7]) | IZ (mm) (B. cereus (ATCC 14579) [8]) | IZ (mm) (B. subtilis (ATCC 6633) [9]) | IZ (mm) [10] [mm] | IC50 [11] [mM] | DPPH Radical Scavenging Effenciency (%) at 1 mg/mL [11] | IC50 (E. faecalis (ATCC 29122) [12]) [µM] | IC50 [13] [µM] | IC50 [14] [µM] | IC50 (E. coli (ATCC 25966) [15]) [µM] | IC50 (S. enteric (ATCC 43972) [16]) [µM] | IC50 (S. aureus (ATCC 25923) [17]) [µM] | IC50 (B. cereus (ATCC 14579) [18]) [µM] | also measured
CC1=C(C(=O)OCc2ccccc2)C(c2ccc(F)cc2)C(C#N)=C(N)O1 (stereo not shown) [4i, 6-Amino-5-cyano-4-(4-fluoro-phenyl)-2-methyl-4H-pyran-3-carboxylic acid benzyl ester] | 274 ± 39 | 124 to 126 | 6.50 ± 0.71 | 8.5 ± 0.7 | 6.5 ± 0.7 | 5.5 ± 0.71 | 8.0 ± 1.4 | 9.50 ± 2.12 mm | 14.50 ± 0.71 | 9.50 mm and 9.50 ± 0.71 mm | 11.50 ± 0.71 | 1.78 ± 0.115 | 26.05 ± 1.06% | 37.5 ± 1.37 | 62 ± 2.2 | 79.9 ± 3.02 | 82.6 ± 1.65 | 91.5 ± 2.74 | 40.2 ± 1.37 | 38 ± 1.37 | IC50 (B. subtilis (ATCC 6633) [19]; B. subtilis (ATCC 6633)): 31.6 ± 1.95 µM; IC50 (B. subtilis (ATCC 6633) [19]; [21]): 23.6 to 36.8 µM; IC50 [20]: 46 ± 0.96 µM; viability at 100 µg/mL (HCT-116 cells): 11 to 32.5%; IC50 (HCT-116 cells; [22]): 181 ± 12.4 µM; IC50 (HCT-116 cells; [23]): 66 ± 4.53 µg/mL
CC1=C(C(=O)OCc2ccccc2)C(c2ccccc2Cl)C(C#N)=C(N)O1 (stereo not shown) [4l, 6-Amino-4-(2-chloro-phenyl)-5-cyano-2-methyl-4H-pyran-3-carboxylic acid benzyl ester] | 801 ± 19 | 162 to 164 | 6.00 ± 1.41 | 4.5 ± 0.7 | 2.5 ± 0.7 | 3.5 ± 0.7 | 4.0 ± 0.0 | 9.00 mm and 9.00 ± 1.41 mm | 10.00 ± 1.41 | 11.50 ± 0.71 mm | 10.50 ± 0.71 | 0.919 ± 0.026 | 70.20% and 70.20 ± 1.70% | 37.8 ± 1.5 | 72.7 ± 2.63 | 77.5 ± 7.08 | 90.1 ± 2.63 | 77.6 ± 1.58 | 31.1 ± 0.55 | 33.2 ± 2.42 | IC50 (B. subtilis (ATCC 6633) [19]; B. subtilis (ATCC 6633)): 32.6 ± 1.5 µM; IC50 (B. subtilis (ATCC 6633) [19]; [21]): 23.6 to 36.8 µM; IC50 [20]: 33.4 ± 1.1 µM; viability at 100 µg/mL (HCT-116 cells): 11 to 32.5%; IC50 (HCT-116 cells; [22]): 93.4 ± 4.63 µM; IC50 (HCT-116 cells; [23]): 35.5 ± 1.77 µg/mL
